Experimental data: patent US11779015B2, “Pesticide compositions” (FUNDACIÓ CENTRE DE REGULACIÓ GENÒMICA, priority 2017, dated 2023)
“Also recorded” adds a separate entry of the source.

Tests used:
D. suzukii [1] = assay: Airborne toxicity petri dish assay, adult flies exposed to VOC vapours (FIG. 1A); type: in vivo, Drosophila suzukii; conditions: for LD50 (expected concentration at which 50% of the flies die): D. suzukii adults, vapours from solution in paraffin oil, within an hour; for T50 (time at which 50% of the flies were dead) / T50: D. suzukii; for T50: 10% vol; for airborne toxicity/lethality in the initial screen with a high dose (words): VOC at 10 M in paraffin oil, vapour exposure, 1 hour; for specificity of toxicity, D. suzukii versus D. melanogaster: at least at the 3, 5 and 10% vol concentrations
Experimental: A selection of compounds according to the invention were tested for airborne toxicity to D. suzukii by exposing a population of adult D. suzukii flies to the vapours of the compound using an experimental set up as shown on FIG. 1A.
(§1) In particular, adult flies 2 were exposed to compositions 4 comprising one or more of a selection of VOCs according to the invention or a comparative example, in a petri dish 6. The compositions 4 were loaded onto the lid 6a of the petri dish 6 and the flies were placed into the base 6b of the dish, which was then covered by a sheet of plastic mesh netting 8 to avoid direct contact of the flies 2 with the compositions 4, before replacing the lid 6a.
[…] Four drops of 50 microlitres were dispensed into reinforcement rings (not shown) fixed on the inner surface of the petri dish lid 6a.
The experimental set up used was as described in relation to FIG. 1A.
The data is shown as averages±SEM based on 3 to 6 trials for each condition.

[2] = tested on: adult flies of D. suzukii; assay: Contact toxicity, adult flies sprayed in a bugdorm; type: in vivo, Drosophila suzukii; conditions: for Proportion of dead flies (%): sprayed; for concentration inducing mortality by contact (as low as): sprayed adult D. suzukii
Experimental: Contact toxicity of E-2-hexenal and methyl benzoate volatiles was tested at different concentrations and in combination with thickeners in different concentration that make E-2-hexenal and methyl benzoate stick to the flies. […] Flies (10-15 mixed males/females) were placed into a bugdorm and sprayed from a distance of 10 cm. Mortality was evaluated after 24 hrs, except for the condition indicated with a star in Table 3, where an exposure time of 50 minutes was used. Thickeners were diluted in aqueous emulsions of deionised water containing 1% vol. Tween 20.

D. sechellia = assay: Airborne toxicity petri dish assay, adult flies (FIG. 1A); type: in vivo; conditions: 10% vol
Description: as §1, with “6a. The onset of paralysis/loss of locomotion control, ultimately resulting in death of the flies 2, was monitored over a period of 1 hour or until all flies 2 were dead, determined when fly wings were vertical (similar to the protocol described in Legal et al. 1992 and 1994).” for “6a.”
(§2) Adult flies of Drosophila species were exposed to a 10% vol solution of (E)-2-hexenal and 10% vol solution of methyl benzoate, in an experimental set up as explained in relation to FIG. 1A. For each VOC, species of the suzukii complex (D. suzukii, D. biarmipes), melanogaster complex (D. melanogaster, D. simulans, D. sechellia), and erecta+yakuba complex (D. erecta, D. yakuba, D. santomea) of the melanogaster species group were compared. 5-10 mixed female and male adults were used per trial. FIGS. 4A and B show the results of these experiments, respectively for (E)-2-hexenal (FIG. 4A) and methyl benzoate (FIG. 4B). The data shown represents the average±SEM of the proportion of dead flies as a function of time, over 3 to 6 assays per condition.

D. erecta = assay: as above; type: in vivo; conditions: 10% vol
Description: as §1, with “6a. The onset of paralysis/loss of locomotion control, ultimately resulting in death of the flies 2, was monitored over a period of 1 hour or until all flies 2 were dead, determined when fly wings were vertical (similar to the protocol described in Legal et al. 1992 and 1994).” for “6a.”
as §2

D. yakuba = assay: as above; type: in vivo; conditions: 10% vol
Description: as §1, with “6a. The onset of paralysis/loss of locomotion control, ultimately resulting in death of the flies 2, was monitored over a period of 1 hour or until all flies 2 were dead, determined when fly wings were vertical (similar to the protocol described in Legal et al. 1992 and 1994).” for “6a.”
as §2

D. biarmipes = assay: as above; type: in vivo; conditions: 10% vol
Description: as §1, with “6a. The onset of paralysis/loss of locomotion control, ultimately resulting in death of the flies 2, was monitored over a period of 1 hour or until all flies 2 were dead, determined when fly wings were vertical (similar to the protocol described in Legal et al. 1992 and 1994).” for “6a.”
as §2

D. simulans = assay: as above; type: in vivo; conditions: 10% vol
Description: as §1, with “6a. The onset of paralysis/loss of locomotion control, ultimately resulting in death of the flies 2, was monitored over a period of 1 hour or until all flies 2 were dead, determined when fly wings were vertical (similar to the protocol described in Legal et al. 1992 and 1994).” for “6a.”
as §2

D. suzukii [3] = assay: Positional and ovipositional preference on food substrate plated with compound; type: in vivo, Drosophila suzukii; conditions: for positional preference/avoidance of adult flies: food plated with compound vs blank, monitored over 5 hours
Experimental: Adult flies 200 are placed in a plastic box 600 with mesh-netting 800 in the lid to allow aeration. Two food sources 400a and 400b (for example petri dishes containing molasses-apple juice agar substrates) are placed into the box 600, of which one 600a is plated with a compound to be tested, and the other 600b is left blank as a control.
Using this experimental set up and pure (E)-2-hexenal or methyl benzoate, the positional preference of the flies was monitored over 5 hours. The ovipositional preference was measured after 24 hours by counting the number of eggs laid on either plate. […] The same experimental set up was used to test for positional and ovipositional preference using different concentrations of (E)-2-hexenal, i.e. 1.2% vol, 3.4% vol, 11.6% vol and 34% vol. The results of these assays are shown on FIG. 7C. All data shown represents the mean+S.E.M. over 2 to 6 trials per condition. In FIG. 7C, deviations marked by a star are associated with a unpaired t-test p-value below 0.05 following a one-way ANOVA test with F(4,22)=3.987 (p=0.017).
Petri dishes (∅ 6 cm) filled with 10 ml of a molasses-apple juice-agar medium acted as food substrate. These were plated with methyl benzoate or (E)-2-hexenal. Two Petri dishes were placed inside a plastic box (32×22×12 cm) with a mesh netting in the lid. One dish was plated with a thin layer of pure odour (1.8 μl (E)-2-hexenal or 0.9 μl methyl benzoate when used pure, or 50 μl of (E)-2-hexenal when used in diluted solutions), and the other was left blank as a control. More (E)-2-hexenal was used because its vapour pressure is 4 times lower than that of methyl benzoate and, thus, is prone to dissipate faster. 20 mixed sex adult flies were placed inside the plastic box and monitored every 0.5 hours, over a period of 5 hours, to assess their positional preference by counting the number of flies positioned on either plate. After 24 hours, their ovipositional preference was monitored by counting the number of eggs laid on either dish. Flies were cooled on ice for handling and discarded after each trial.

[4] = tested on: honeybees (Apis mellifera); assay: Airborne toxicity on honeybees in the petri dish assay; type: in vivo; conditions: adult bees exposed for one hour; for toxicity to honey bees: 10% vol
Experimental: The toxicity of (E)-2-hexenal and methyl benzoate volatiles was tested at 100% (pure) and 10% vol. concentrations on honeybees (Apis mellifera) in the petri dish assay of FIG. 1A. Adult bees were exposed for one hour and the proportion of death across all trials (5 trials with each of the pure VOCs and 10 trials for each of the 10% vol VOC assays) was calculated. The results of these experiments are shown on FIG. 8.
Honeybee foragers were obtained from a large bee keeping company (Agroquímica Ollé, http://agroquimicaolle.com). Bees were held in an incubator at 22 degrees for a few days and provided with ad libitum sugar water.

[5] = 0.1% compound + 1% Arabic Gom, 24 hrs
[6] = 0.1% compound + 1% hydroxyethylcellulose, 24 hrs
[7] = 0.1% compound, mortality after 24 hrs
[8] = 1% compound + 1% Arabic Gom, 24 hrs
[9] = 1% compound + 1% hydroxyethylcellulose, 24 hrs
[10] = 5% compound, mortality after 24 hrs
[11] = *1% compound, exposure time of 50 minutes

CCC/C=C/C=O [(E)-2-hexenal]
lethality as a function of the sex of the flies (D. suzukii [1]; 5% vol in paraffin solution, adult D. suzukii, males vs females): males displayed more sensitivity
LD50 (expected concentration at which 50% of the flies die) (D. suzukii [1]): 3 % vol
T50 (time at which 50% of the flies were dead) (D. suzukii [1]; 1% concentration): not lethal
T50 (D. suzukii [1]): 4.1 min
T50 (time at which 50% of the flies were dead) (D. suzukii [1]; concentration 5% vol): 9.3 min
T50 (time at which 50% of the flies were dead) (D. suzukii [1]; concentration 10% vol): 4.1 min
T50 (time at which 50% of the flies were dead) (D. suzukii [1]; concentration 20% vol): 1.6 min
T50 (time at which 50% of the flies were dead) (D. suzukii [1]; concentration 100% vol): 1.2 min
airborne toxicity/lethality in the initial screen with a high dose (words) (D. suzukii [1]): highly toxic; also recorded: showed toxicity
specificity of toxicity, D. suzukii versus D. melanogaster (D. suzukii [1]): specific toxicity towards D. suzukii
Proportion of dead flies (%) [2, 5]: 80%
Proportion of dead flies (%) [2, 6]: 80%
Proportion of dead flies (%) [2, 7]: 31%
Proportion of dead flies (%) [2, 8]: 10%
Proportion of dead flies (%) [2, 9]: 50%
Proportion of dead flies (%) [2, 10]: 100%
Proportion of dead flies (%) [2, 11]: 50%
concentration inducing mortality by contact (as low as) [2]: 0.1%
T50 (D. sechellia): 22.7 min
T50 (D. erecta): 5.3 min
T50 (D. yakuba): 8.7 min
T50 (D. biarmipes): 15.4 min
T50 (D. simulans): 9 min
positional preference/avoidance of adult flies (D. suzukii [3]): relatively weak
concentration from which flies avoid laying their eggs on the plated side (D. suzukii [3]; tested 1.2, 3.4, 11.6 and 34% vol, eggs counted after 24 hours): ≥ 3.4 % vol
toxicity to honey bees [4]: low levels of toxicity
toxicity to honey bees (rate) ([4]; 100% (pure) compound): significantly faster rate than pure methyl benzoate

COC(=O)c1ccccc1 [methyl benzoate, Methyl benzoate]
LD50 (expected concentration at which 50% of the flies die) (D. suzukii [1]): 3 % vol
T50 (time at which 50% of the flies were dead) (D. suzukii [1]; 1% concentration): not lethal
T50 (D. suzukii [1]): 5.9 min
T50 (time at which 50% of the flies were dead) (D. suzukii [1]; concentration 5% vol): 9.8 min
T50 (time at which 50% of the flies were dead) (D. suzukii [1]; concentration 10% vol): 5.9 min
T50 (time at which 50% of the flies were dead) (D. suzukii [1]; concentration 20% vol): 4.2 min
T50 (time at which 50% of the flies were dead) (D. suzukii [1]; concentration 100% vol): 2.8 min
airborne toxicity/lethality in the initial screen with a high dose (words) (D. suzukii [1]): highly toxic; also recorded: showed toxicity
specificity of toxicity, D. suzukii versus D. melanogaster (D. suzukii [1]): specific toxicity towards D. suzukii
Proportion of dead flies (%) [2, 5]: 30%
Proportion of dead flies (%) [2, 6]: 10%
Proportion of dead flies (%) [2, 7]: 33%
Proportion of dead flies (%) [2, 8]: 30%
Proportion of dead flies (%) [2, 9]: 70%
Proportion of dead flies (%) [2, 10]: 100%
Proportion of dead flies (%) [2, 11]: 30%
concentration inducing mortality by contact (as low as) [2]: 0.1%
T50 (D. sechellia): 34 min
T50 (D. erecta): 13.8 min
T50 (D. yakuba): 11 min
T50 (D. biarmipes): 9.6 min
T50 (D. simulans): 9.4 min
positional preference/avoidance of adult flies (D. suzukii [3]): stronger avoidance response
ovipositional preference (egg-laying) (D. suzukii [3]; food plated with pure compound vs blank, eggs counted after 24 hours): strong egg-laying deterrent
toxicity to honey bees [4]: low levels of toxicity
